Converted amounts (≈) assume the structure as drawn. Like-named read-outs stand apart in the source and are kept apart here.
Key:
A. flavus (ATCC 9170) = experiment: Antifungal broth microdilution (CLSI); type: cell-based; conditions: ATCC9170; Afl: Aspergillus flavus
Procedure: (§1) Several of the obtained triazine derivatives were evaluated against sensitive fungal species comprising of two yeasts (Candida albicans (ATCC 10231), Cryptococcus neoformans (ATCC 32264)), three dermatophytes (Microsporum gypseum (CCC 115), Trichophyton rubrum (CCC 134-2000), Trichophyton mentagrophytes (CCC 202-2000)), and three Aspergillus fungi ((A. [NT] 26934), A. niger (ATCC 9029), and A. flavus (ATCC 9170)). […] Broth microdilution techniques were performed in 96-well microplates according to the Reference Method for Broth Dilution Antifungal Susceptibility Testing of Yeasts, document M27-A3 [86] and of Filamentous Fungi […]-A8 [87]. […] An inoculum suspension (100 μL) was added to each well (final well volume = 200 μL). One growth control well (containing medium, inoculum, and the same amount of DMSO as used for each compound) and one sterility control well (sample, medium, and sterile water instead of inoculum) were included for each fungus tested. Microtiter plates were incubated in a dark, humid chamber at 30 °C for the time necessary for each fungus. Amphotericin B, Terbinafine, Fluconazole and Itraconazole were used as a positive control. The tests were performed in triplicate.

[1] = system: Microsporum gypseum (CCC 115); experiment: Antifungal broth microdilution (CLSI); type: cell-based; conditions: Nannizzia gypsea; Mg: Microsporum gypseum
Procedure: as §1

[2] = system: Trichophyton rubrum (CCC 134-2000); experiment: Antifungal broth microdilution (CLSI); type: cell-based; conditions: Tr: Trichophyton rubrum
Procedure: as §1

A. niger (ATCC 9029) = experiment: Antifungal broth microdilution (CLSI); type: cell-based; conditions: ATCC9029; Ani: Aspergillus niger
Procedure: as §1

[3] = system: Trichophyton mentagrophytes (CCC 202-2000); experiment: Antifungal broth microdilution (CLSI); type: cell-based; conditions: Tm: Trichophyton mentagrophytes
Procedure: as §1

[4] = system: A. fumigatus (ATCC 26934); experiment: Antifungal broth microdilution (CLSI); type: cell-based; conditions: ATCC26934; Afu: Aspergillus fumigatus
Procedure: as §1

[5] = system: Cryptococcus neoformans (ATCC 32264); experiment: Antifungal broth microdilution (CLSI); type: cell-based; conditions: ATCC32264; Cn: Cryptococcus neoformans
Procedure: as §1

[6] = system: Candida albicans (ATCC 10231); experiment: Antifungal broth microdilution (CLSI); type: cell-based; conditions: ATCC10231; Ca: Candida albicans
Procedure: as §1

[7] = system: N. gonorrhoeae ATCC 49226; experiment: MIC on GC agar plates; type: cell-based, Neisseria gonorrhoeae
Procedure: An initial screening for bacterial inhibition was performed by the agar diffusion method. […] DMSO and TSB were included as negative controls. Gentamicin and trimethoprim sulfamethoxazole were included as a positive control for growth inhibition. Derivatives showing growth inhibition were tested at least twice before being selected for the microdilution test. For N. gonorrhoeae, the agar diffusion method was also used for screening with some modifications. […] Penicillin and tetracycline were used as controls. […] Briefly, GC agar supplemented with 1% isovitalex was prepared with increasing concentrations of the new compounds and inoculated with 10 µL of a bacterial suspension (1 × 10^4 CFU). The lowest concentration of the compound that inhibited bacterial growth was determined as the MIC. Bacterial growth was examined and verified using the oxidase test. The experiments were performed in duplicate in at least two independent assays.

[8] = Hemolytic activity, spectrophotometric; type: cell-based, human; conditions: human, human red blood cells (huRBC), 5% hematocrit, 200 μg/mL, 37 °C
[9] = system: M. tuberculosis ATCC 27294; experiment: Antitubercular broth microdilution MIC; type: cell-based; conditions: Mycobacterium tuberculosis; M. tuberculosis ATCC 27294 (H37Rv); read-out: Minimum inhibitory concentration (MIC)
60 cancer cell lines = experiment: NCI-60 one-dose screen (10 μM); type: cell-based; conditions: Homo sapiens; one dose of 10 μM, mean over 60 cancer cell lines; read-out: Mean Growth Percent (MGP)
Source text: Additionally, the mean of the growth percentages (MGP) of each compound against all the 60 cancer cell lines is also reported, which is used as one of the selection criteria to continue with tests at five concentration doses.

[10] = system: human red blood cells (huRBC); experiment: Hemolytic activity, spectrophotometric; type: cell-based; conditions: 200 μg/mL, 24 h, 37 °C
AChE = system: AChE; design: method as in PMID 34795867, PMID 35252706, doi:10.1016/j.molstruc.2021.132275, PMID 18811208, doi:10.1016/j.molstruc.2022.132498; conditions: cited from earlier work
[11] = system: N. gonorrhoeae ATCC 49226; conditions: control drugs, range in parenthesis; cited from earlier work
HCT-116 = experiment: cells; conditions: Homo sapiens, HCT-116, 48 h
CAKI-1 = experiment: cells; conditions: Homo sapiens, CAKI-1, 48 h
MOLT-4 = experiment: cells; conditions: Homo sapiens, MOLT-4, 48 h
RXF 393 = experiment: cells; conditions: Homo sapiens, RXF 393, 48 h
[12] = system: Mycobacterium tuberculosis H37Rv; design: method as in PMID 34795867, PMID 35252706, doi:10.1016/j.molstruc.2021.132275, PMID 18811208, doi:10.1016/j.molstruc.2022.132498; conditions: cited from earlier work
Galleria mellonella = experiment: Toxicity in the Galleria mellonella model; conditions: G. mellonella larvae, at the higher doses
Procedure: G mellonella larvae were cultivated in the laboratory and healthy, beige larvae weighing 150–200 mg, were selected for toxicity assays.

S. aureus ATCC 43300 [13] = experiment: Antibacterial MIC, microdilution; type: cell-based; conditions: Staphylococcus aureus; S. aureus ATCC 43300 (MRSA)
S. aureus ATCC 43300 [14] = conditions: tetracycline; cited from earlier work
[15] = Neisseria gonorrhoeae, ATCC49226, read-out: MIC

| Compound | MIC (A. flavus (ATCC 9170)) | MIC [1] | MIC [2] | MIC (A. niger (ATCC 9029)) | MIC [3] | MIC [4] | MIC [5] | MIC [6] | MIC [7, 15] | hemolysis at 24 h, 200 µg/mL [8] | MIC [9] | activity at 10 µM (60 cancer cell lines) | also measured |
| --- | --- | --- | --- | --- | --- | --- | --- | --- | --- | --- | --- | --- | --- |
| C[C@@H]1[C@H](O)[C@@H](C)/C=C/C=C/C=C/C=C/C=C/C=C/C=C/[C@H](O[C@@H]2O[C@H](C)[C@@H](O)[C@H](N)[C@@H]2O)C[C@@H]2O[C@](O)(C[C@@H](O)C[C@@H](O)[C@H](O)CC[C@@H](O)C[C@@H](O)CC(=O)O[C@H]1C)C[C@H](O)[C@H]2C(=O)O [Amphotericin B, reference compound] | 0.5 µg/mL (≈ 0.541 µM) | 0.125 µg/mL (≈ 0.135 µM) | 0.075 µg/mL (≈ 0.0812 µM) | 0.5 µg/mL (≈ 0.541 µM) | 0.075 µg/mL (≈ 0.0812 µM) | 0.5 µg/mL (≈ 0.541 µM) | 0.25 µg/mL (≈ 0.271 µM) | 0.5 µg/mL (≈ 0.541 µM) |  |  |  |  |  |
| COc1cc(C2CC(c3ccc(F)cc3)=Nc3c(N)nc(N)nc3N2)ccc1Oc1nc(Nc2ccc(F)cc2)nc(N(C)C)n1 (centres unmarked) [29f] | > 250 µg/mL | 125 µg/mL (≈ 200 µM) | > 250 µg/mL | > 250 µg/mL | > 250 µg/mL | > 250 µg/mL | > 250 µg/mL | > 250 µg/mL | 0.5 µg/mL (≈ 0.799 µM) | 0% | 2.5 µg/mL (≈ 4 µM) | 45.2% |  |
| COc1cc(C2CC(c3ccc(C(F)(F)F)cc3)=Nc3c(N)nc(N)nc3N2)ccc1Oc1nc(NCCO)nc(N2CCOCC2)n1 (centres unmarked) [28g] |  |  |  |  |  |  |  |  | 8 µg/mL (≈ 12 µM) |  |  | 99.4% | % Hemolysis [10]: 100% |
| CN(c1nc(Cl)nc(N2CCN(Cc3nc4ccccc4[nH]3)CC2)n1)C1CCCCC1 [compound 2] |  |  |  |  |  |  |  |  |  |  |  |  | IC50 (AChE): 44 nM |
| Penicillin [reference compound] |  |  |  |  |  |  |  |  |  |  |  |  | MIC [7]: 0.25 µg/mL; MIC range values for this strain [11]: 0.25 to 1.0 µg/mL |
| COc1cc(C2CC(c3ccc(C(F)(F)F)cc3)=Nc3c(N)nc(N)nc3N2)ccc1Oc1nc(Nc2ccc(F)cc2)nc(N(C)C)n1 (centres unmarked) [29g] | > 250 µg/mL | 125 µg/mL (≈ 185 µM) | > 250 µg/mL | > 250 µg/mL | > 250 µg/mL | > 250 µg/mL | > 250 µg/mL | > 250 µg/mL | ≥ 500 µg/mL |  | 5 µg/mL (≈ 7.4 µM) | 40.9% | GI50 (HCT-116): 1760 nM; CC50 (HCT-116; read-out: LC50): 7560 nM; GI50 (CAKI-1): 1650 nM; CC50 (CAKI-1; read-out: LC50): > 100000 nM; GI50 (MOLT-4): 1710 nM; CC50 (MOLT-4; read-out: LC50): > 100000 nM; GI50 (RXF 393): 1220 nM; CC50 (RXF 393; read-out: LC50): 34100 nM |
| COc1ccc(C2=Nc3c(N)nc(N)nc3NC(c3ccc(Oc4nc(Nc5ccc(F)cc5)nc(N(C)C)n4)c(OC)c3)C2)cc1 (centres unmarked) [29c] | > 250 µg/mL | 125 µg/mL (≈ 196 µM) | > 250 µg/mL | > 250 µg/mL | > 250 µg/mL | > 250 µg/mL | > 250 µg/mL | > 250 µg/mL | 62.5 µg/mL (≈ 98 µM) | 2.9% | 1.2 µg/mL (≈ 1.88 µM) | 64.2% |  |
| CC(=O)c1ccc(S(=O)(=O)NCCNc2nc(N(C)C)nc(N3CCOCC3)n2)cc1 [compound 17] | > 250 µg/mL | > 250 µg/mL | 125 µg/mL (≈ 278 µM) | > 250 µg/mL | > 250 µg/mL | > 250 µg/mL | > 250 µg/mL | > 250 µg/mL |  | 1.6% |  | 108% |  |
| O=C(/C=C/c1ccc(F)cc1F)c1ccc(Nc2nc(Cl)nc(Cl)n2)cc1 [compound 3] |  |  |  |  |  |  |  |  |  |  |  |  | MIC [12]: 3.125 µg/mL (≈ 7.67 µM) |
| COc1cc(C2CC(c3ccc(S(=O)(=O)NCCNc4nc(N(C)C)nc(N5CCOCC5)n4)cc3)=Nc3c(N)nc(N)nc3N2)cc(OC)c1OC (centres unmarked) [30d] | > 250 µg/mL | > 250 µg/mL | 125 µg/mL (≈ 167 µM) | > 250 µg/mL | > 250 µg/mL | > 250 µg/mL | > 250 µg/mL | > 250 µg/mL | 16.1 µg/mL (≈ 21.5 µM) | 11% |  | 95% | mortality (Galleria mellonella): ≤ 25% |
| COc1cc(C2CC(c3cc(OC)c(OC)c(OC)c3)=Nc3c(N)nc(N)nc3N2)ccc1Oc1nc(Nc2ccc(F)cc2)nc(N(C)C)n1 (centres unmarked) [29d] |  |  |  |  |  |  |  |  | 16.1 µg/mL (≈ 23.1 µM) | > 75% | 5 µg/mL (≈ 7.17 µM) | 54.5% | % Hemolysis [10]: 75% |
| CN(C)[C@@H]1C(O)=C(C(N)=O)C(=O)[C@@]2(O)C(O)=C3C(=O)c4c(O)cccc4[C@@](C)(O)[C@H]3C[C@@H]12 [Tetracycline, reference compound] |  |  |  |  |  |  |  |  | 1 µg/mL (≈ 2.25 µM) |  |  |  | MIC (S. aureus ATCC 43300 [13]): 0.05 µg/mL (≈ 0.113 µM); MIC range values for this strain [11]: 0.25 to 1.0 µg/mL; MIC range (S. aureus ATCC 43300 [14]): 0.05 to 0.25 µg/mL |

— PMC11012124, “Synthesis of Novel Triazine-Based Chalcones and 8,9-dihydro-7H-pyrimido[4,5-b][1,4]diazepines as Potential Leads in the Search of Anticancer, Antibacterial and Antifungal Agents” (International Journal of Molecular Sciences, 2024)
